Patent US20200055871A1, “ACTIVATORS OF THE RETINOIC ACID INDUCIBLE GENE "RIG-I" PATHWAY AND METHODS OF USE THEREOF” (Kineta Immuno-Oncology LLC, priority 2018, published 2020)

Experiments:
[1] = tested on: IRF3 signaling pathway in THP1-Lucia™ ISG cells; assay: THP1-Lucia ISG reporter assay: induction of IRF3-dependent gene expression (secreted luciferase); assay type: cell-based, human; conditions: PMA-differentiated cells, 18 h after stimulation
In short: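 PMA-differentiated THP-1 reporter cells (ISRE/ISG54 promoter driving secreted luciferase), plus CRISPR IRF3−/− line, treated with compounds at 5–20 μM (mostly 10 μM). Luciferase measured 18 h later; values are fold increase over untreated background, binned from <2.4 to ≥40.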

[2] = tested on: murine CT26 colon carcinoma cells; assay: RIG-I dependent CXCL10 secretion by CT26 cells (ELISA); assay type: cell-based; conditions: supernatant 24 h after stimulation
In short: (§1)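 CT26 murine colon carcinoma cells, parental or CRISPR RIG-I−/−, seeded and grown 24 hr at 37° C, then treated with compounds at 10 μM, or at 5 or 20 μM for some. Secreted CXCL10 measured by ELISA in supernatants 24 h after treatment and reported in pg/mL bands.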

[3] = tested on: IRF3-deficient THP1-Lucia™ ISG IRF3−/− cells; assay: THP1-Lucia ISG IRF3−/− reporter assay (IRF3-deficient control cells); assay type: cell-based, human; conditions: compound 5 to 20 μM, 18 h
Procedure: The promoter was comprised of five IFN-stimulated response elements (ISRE) fused to an ISG54 minimal promoter which is unresponsive to NF-kB or AP-1 pathways. […] The IRF3-deficient THP1-Lucia™ ISG IRF3−/−reporter cell line was generated by CRISPR technology from the parent THP1-Lucia™ ISG reporter cell line.
THP1-Lucia™ ISG cells and IRF3-deficient THP1-Lucia™ ISG IRF3−/−cells were differentiated with PMA (100 ng/ml) and stimulated with compounds at the indicated concentrations (5 to 20 μM), positive control, or not treated (background). Luciferase secretion was quantified using the QUANTI-Luc luciferase assay system (InvivoGen) 18 h after stimulation. Data are shown as fold increase luciferase activity over background in Table 7 and represent the IRF3-dependent ISG54 promoter activity by the THP1-Lucia™ ISG cells in response to compounds. […] The fold increase of compounds (10 μM, *20 μM, **5 μM) induced IRF3 dependent luciferase activity is indicated as follows: “≠” indicates less than 2.4 fold increase; “+” indicates a 2.4-4.9 fold increase; “++” indicates a 5-9.9 fold increase; “+++” indicates a 10-19 fold increase; “++++” indicates a 20-39 fold increase; “+++++” indicates greater than or equal to 40 fold increase.

[4] = tested on: RIG-I deficient CT26 RIG-I−/− cells; assay: CXCL10 secretion by RIG-I deficient CT26 RIG-I−/− cells (ELISA); assay type: cell-based, murine; conditions: compound 5 to 20 μM, 24 h; note: key: −: about 0 pg/mL of CXCL10, or below the level of quantitation
In short: as §1

| Compound | fold increase of IRF3-dependent luciferase activity over background, THP1 ISG ([1]; 20 μM compound (*)) | CXCL10 secretion, CT26 ([2]; 20 μM compound (*)) | fold increase of luciferase activity, THP1 ISG IRF3−/− [3] | CXCL10 secretion, CT26 RIG-I−/− [4] | fold increase of IRF3-dependent luciferase activity over background, THP1 ISG ([1]; 10 μM compound) | CXCL10 secretion, CT26 ([2]; 10 μM compound) |
| --- | --- | --- | --- | --- | --- | --- |
| O=C(Nc1nc2c(ccc3scnc32)[nH]1)c1ccc2ccccc2c1 [Example 48, N-{5-thia-3,10,12-triazatricyclo[7.3.0.0^2,^6]dodeca-1,3,6,8,11-pentaen-11-yl}naphthalene-2-carboxamide] | ++* (a 5-9.9 fold increase) | ++++* (800 to 1599 pg/mL) | − (less than 0.5 fold above baseline was considered below the level of quantitation) | − |  |  |
| O=C(Nc1nc2ccc3sccc3c2s1)c1cc2ccccc2cc1OCCCCN1CCOCC1 [Example 49, N-{3,10-dithia-5-azatricyclo[7.3.0.0^2,^6]dodeca-1,4,6,8,11-pentaen-4-yl}-3-[4-(morpholin-4-yl)butoxy]naphthalene-2-carboxamide] |  |  | − (less than 0.5 fold above baseline was considered below the level of quantitation) | − | +++ (a 10-19 fold increase) | ++++ (800 to 1599 pg/mL) |
| O=C(Nc1nc2ccc3occc3c2s1)c1cc2ccccc2cc1OCCCCN1CCOCC1 [Example 50, 3-[4-(morpholin-4-yl)butoxy]-N-{10-oxa-3-thia-5-azatricyclo[7.3.0.0^2,^6]dodeca-1,4,6,8,11-pentaen-4-yl}naphthalene-2-carboxamide] |  |  | − (less than 0.5 fold above baseline was considered below the level of quantitation) | − | +++ (a 10-19 fold increase) | ++ (200-399 pg/mL) |
| O=C(Nc1nc2ccc3occc3c2s1)c1cc2ccccc2cc1OCCN1CCOCC1 [Example 51, 3-[2-(morpholin-4-yl)ethoxy]-N-{10-oxa-3-thia-5-azatricyclo[7.3.0.0^2,^6]dodeca-1,4,6,8,11-pentaen-4-yl}naphthalene-2-carboxamide] |  |  | − (less than 0.5 fold above baseline was considered below the level of quantitation) | − | +++ (a 10-19 fold increase) | +++ (400-799 pg/mL) |
| O=C(Nc1nc2ccc3ocnc3c2s1)c1cc2ccccc2cc1OCCN1CCOCC1 [Example 52, 3-[2-(morpholin-4-yl)ethoxy]-N-{10-oxa-3-thia-5,12-diazatricyclo[7.3.0.0^2,^6]dodeca-1,4,6,8,11-pentaen-4-yl}naphthalene-2-carboxamide] |  |  | − (less than 0.5 fold above baseline was considered below the level of quantitation) | − | + (a 2.4-4.9 fold increase) | + (100-199 pg/mL) |
| O=C(Nc1nc2ccc3ocnc3c2s1)c1cc2ccccc2cc1OCCCCN1CCOCC1 [Example 53, 3-[4-(morpholin-4-yl)butoxy]-N-{10-oxa-3-thia-5,12-diazatricyclo [7.3.0.0^2,^6]dodeca-1,4,6,8,11-pentaen-4-yl}naphthalene-2-carboxamide] |  |  | − (less than 0.5 fold above baseline was considered below the level of quantitation) | − | ++ (a 5-9.9 fold increase) | +++++ (greater than or equal to 1600 pg/ml) |
| O=C(Nc1cc2ccc3scnc3c2s1)c1cc2ccccc2cc1OCCCCN1CCOCC1 [Example 54, N-{5,12-dithia-3-azatricyclo[7.3.0.0^2,^6]dodeca-1,3,6,8,10-pentaen-11-yl}-3-[4-(morpholin-4-yl)butoxy]naphthalene-2-carboxamide] |  |  | − (less than 0.5 fold above baseline was considered below the level of quantitation) | − | +++ (a 10-19 fold increase) | ++++ (800 to 1599 pg/mL) |
| O=C(Nc1cc2ccc3scnc3c2s1)c1cc2ccccc2cc1OCCN1CCOCC1 [Example 55, N-{5,12-dithia-3-azatricyclo[7.3.0.0^2,^6]dodeca-1,3,6,8,10-pentaen-11-yl}-3-[2-(morpholin-4-yl)ethoxy]naphthalene-2-carboxamide] |  |  | − (less than 0.5 fold above baseline was considered below the level of quantitation) | − | +++ (a 10-19 fold increase) | ≠ (less than 100 pg/mL) |
| O=C(Nc1cc2ccc3scnc3c2o1)c1cc2ccccc2cc1OCCCCN1CCOCC1 [Example 56, 3-[4-(morpholin-4-yl)butoxy]-N-{12-oxa-5-thia-3-azatricyclo [7.3.0.0^2,^6]dodeca-1,3,6,8,10-pentaen-11-yl}naphthalene-2-carboxamide] |  |  | − (less than 0.5 fold above baseline was considered below the level of quantitation) | − | + (a 2.4-4.9 fold increase) | +++ (400-799 pg/mL) |
| O=C(Nc1cc2ccc3scnc3c2s1)c1cc2ccsc2cc1OCCN1CCOCC1 [Example 65, N-{5,12-dithia-3-azatricyclo[7.3.0.0^2,^6]dodeca-1,3,6,8,10-pentaen-11-yl}-6-[2-(morpholin-4-yl)ethoxy]-1-benzothiophene-5-carboxamide] |  |  | − (less than 0.5 fold above baseline was considered below the level of quantitation) |  | + (a 2.4-4.9 fold increase) | ≠ (less than 100 pg/mL) |
| COc1nc2c(ccc3cc(NC(=O)c4cc5ccsc5cc4OCCCCN4CCOCC4)sc32)s1 [Example 68, N-{4-methoxy-5,12-dithia-3-azatricyclo[7.3.0.0^2,^6]dodeca-1,3,6,8,10-pentaen-11-yl}-6-[4-(morpholin-4-yl)butoxy]-1-benzothiophene-5-carboxamide] |  |  | − (less than 0.5 fold above baseline was considered below the level of quantitation) | − |  |  |
| Cn1ccc2cc(OCCN3CCOCC3)c(C(=O)Nc3nc4ccc5scnc5c4s3)cc21 [Example 69, N-{3,10-dithia-5,12-diazatricyclo[7.3.0.0^2,^6]dodeca-1,4,6,8,11-pentaen-4-yl}-1-methyl-5-[2-(morpholin-4-yl)ethoxy]-1H-indole-6-carboxamide] |  |  | − (less than 0.5 fold above baseline was considered below the level of quantitation) | − |  |  |
| N-{4-methoxy-5,12-dithia-3-azatricyclo[7.3.0.0^2,^6]dodeca-1,3,6,8,10-pentaen-11-yl}-6-[2-(morpholin-4-yl)ethoxy]-1-benzothiophene-5-carboxamide [Example 67] |  |  | − (less than 0.5 fold above baseline was considered below the level of quantitation) | − |  |  |
